Measured values reported in patent EP0427518B1, “NMDA-Blocking compounds, pharmaceutical compositions, their preparation and use” (priority 1989, dated 1991).

What was measured:
[1] = cited from earlier work
Sabra mice [2] = test: Induction of stereotypy (stereotypy gradient of Feigenbaum et al.); assay type: in vivo; details: for Stereotypy Gradient: HU-211 2.5 mg/kg s.c., mean ±SEM; for induction of stereotypy, locomotor hyperactivity and tachycardia: at about 25 mg/kg body weight, summary statement covering stereotypy, locomotor and heart rate tests, mice
Text: (§1) As will be shown hereafter, the pharmacological profile of HU-211, and other compounds constituting the active ingredients of the present compositions, includes the induction of stereotypy, locomotor hyper-activity and tachycardia in mice (Table 1). […] This possibility was explored by examining the activity of the compounds in protecting against the tremorogenic, convulsive and lethal effects of NMDA and NMDA agonists in mice. Such effects are counteracted by virtually all NMDA antagonists.

Sabra mice [3] = test: Locomotor activity (body displacement over 7-cm squares); assay type: in vivo; details: HU-211 2.5 mg/kg s.c., mean ±SEM
Text: as §1

Sabra mice [4] = test: Induction of tachycardia (heart rate); assay type: in vivo; details: HU-211 2.5 mg/kg s.c., mean ±SEM
Text: as §1

Sabra mice [5] = test: Inhibition of tremorogenic, convulsive and lethal effects of NMDA in Sabra mice; assay type: in vivo
Description: (§2) Sabra mice (an Israeli heterogenous strain) were pretreated with either vehicle alone (control) or HU-211 (1.25 or 2.50 mg/kg; s.c.), followed by NMDA (200 mg/kg; s.c.). […] Similar experiments were performed using C-57 Black mice, in which the dose of NMDA was decreased (100 mg/kg; s.c.). Counteraction by HU-211 of the NMDA-induced effects was more pronounced in the latter strain (which is more sensitive than Sabra mice to the effects of NMDA). In the control series of both strains, which received NMDA without HU-211, all animals died in less than 10 min. following seizure onset.

C-57 Black mice = test: Inhibition of tremorogenic, convulsive and lethal effects of NMDA in C-57 Black mice; assay type: in vivo; details: for blockade of NMDA-induced tremor, seizure and lethality: at about 2.5 mg/kg body weight, summary statement, mouse strain not given; for mice in which the tremorogenic, convulsive and lethal effects were prevented: dose 5 mk/kg, NMDA 100 mg/kg
Description: as §2
The experiments described in Table 2 were repeated with C-57 Black mice, HU-211 replaced by the compound of formula (II) (compound Vb, U.S. Patent No. 4,179,517) and the compound of formula (IIa)(compound XIb, ibid.). NMDA (100 mg/kg) was administered to the mice.
In addition, the experiments were repeated with the novel compound HU-247.

NMDA receptor [6] = test: Equilibrium binding of [³H]TCP to well-washed rat brain cortical membranes
NMDA receptor [7] = test: Kinetics of basal and glutamate/glycine-induced [³H]TCP binding to rat brain cortical membranes
Description: Kinetic experiments were then performed in order to determine whether HU-211 exerts its behavioral effects by acting directly at the glutamate- or the glycine-binding sites of the NMDA receptor.
Like the competitive NMDA antagonist aminophosphovalerate (AP-5), HU-211 reduces the glutamate/glycine potentiation of [³H]TCP binding.
HU-211 reduces the rate of binding of [³H]TCP to the NMDA-receptor channel and the rate of dissociation of [³H]TCP-receptor complexes. • A) Time course of basal (without added agonist) and induced with 1 »M L-glutamate and 1 »M glycine) [³H]TCP binding to the NMDA receptor of rat brain cortical membranes. Data represent the basal binding determined in the absence (●) and in the presence (▲) of 10 »M HU-211, and the induced binding determined in the absence (o) and in the presence (△) of 10 »M HU-211. Binding of [³H]TCP to well-washed control membranes was determined under the following conditions: membranes (80 »g protein) were incubated at 25°C in 200 »l HEPES buffer, pH 7.4, containing 5 nM [³H]TCP (total binding) or 5 nM [³H]TCP and 100 »M PCP (phencyclidine) (nonspecific binding), and the reactions were terminated at the indicated times by rapid filtration over polyethyleneimine-treated GF/C filters. The filters were counted in scintillation liquid (Hydroluma, Lumac Inc., Netherlands). HU-211 was prepared as described elsewhere [Mechoulam, R., et al., Tetrahedron:Asymmetry, 1:315-319 (1990)]. Means values (triplicates) of the specific binding of [³H]TCP (total minus non-specific binding) are plotted as a function of the incubation time. The data shown are from one of three experiments that gave similar results. • (B-C) First-order plots of the basal (B) and the induced (C) dissociation of [³H]TCP-receptor complexes. Data represent the basal (without added agonist) dissociation rates determined in the absence (●) and in the presence (▲) of 10 »M HU-211; the induced (with 1 »M L-glutamate and 1 »M glycine) dissociation rates were determined in the absence (o) and in the presence (△) of 10 »M HU-211. Samples were preincubated as described for Figure 2A, at 25°C with 18 nM [³H]TCP for 2 h. Basal dissociation reactions were initiated by the addition of 100 »M unlabeled PCP with or without 10 »M HU-211. For the induced dissociation reactions 1 »M glutamate and 1 »M glycine were also added. Reactions were terminated either immediately (zero time) or at the indicated times. Beq, amount of [³H]TCP bound at zero time. Bt, amount of [³H]TCP boud at time t. […]
Data represent the concentration-dependent decrease of [³H]TCP binding by HU-211 (o) and by its isomer HU-210 (△). Binding of [³H]TCP (5 nM) was determined as described for Figure 2A, either in the absence (basal) or in the presence (induced) of 1 »M glutamate (A) or of 1 »M glycine (B).
Reactions were terminated after 10 min. Data are expressed as induced over basal binding as a function of isomer concentrations. […]
Non-competitive inhibition of glutamate- or glycine-induced [³H]TCP binding by HU-211. Induced [³H]TCP binding, corresponding to the ratio of binding in the presence of glutamate or glycine to binding in their absence, was determined with 5 nM [³H]TCP at 25°C for 10 min. Binding of (³H)TCP to well-washed rat cortical membranes was determined in triplicate, as described previously [Kloog, Y., et al., Biochemistry, 27: 843-848 (1988)], in the absence (basal) and presence of various concentrations of L-glutamate (a) or glycine (b) with and without HU-211, as indicated. […]

BALB/C mice [8] = test: Protection against NMDA toxicity; assay type: in vivo; details: for % alive / No.alive total / Onset time of clinical signs: NMDA 125 mg/kg s.c., 120 min post HU-211
Description: (§3) BALB/C mice (20 g) were subcutaneously injected with picrotoxin, strychnine and NMDA in doses of about LD₉₀ and subsequent clinical observations for the occurrence of convulsions and death were carried out within 20 min. The number of mice used and the mortality were assessed at the highest doses administered.

BALB/C mice [9] = test: Protection against strychnine toxicity; assay type: in vivo; details: Strychnine 1 mg/kg s.c.; vehicle Emulphor; HU-211 10 mg/kg; 75 min post HU-211
Description: as §3

BALB/C mice [10] = test: Protection against picrotoxin toxicity; assay type: in vivo; details: Picrotoxin 4 mg/kg s.c.; vehicle Emulsion; HU-211 10 mg/kg; 120 min post HU-211
Description: as §3

[11] = Sabra mice, HU-211 2.5 mg/kg s.c. 75 min prior to NMDA 200 mg/kg s.c.
[12] = C-57 Black mice, HU-211 1.25 mg/kg s.c. 75 min prior to NMDA 100 mg/kg s.c.
[13] = C-57 Black mice, HU-211 2.50 mg/kg s.c. 75 min prior to NMDA 100 mg/kg s.c.
[14] = vehicle Emulphor, HU-211 5 mg/kg
[15] = vehicle Emulsion, HU-211 5 mg/kg
[16] = vehicle Emulsion, HU-211 10 mg/kg

CCCCCCC(C)(C)c1cc(O)c2c(c1)OC(C)(C)[C@@H]1CC=C(CO)C[C@@H]21 [HU-210, 7-hydroxy-Δ⁶-tetrahydrocannabionol 1,1-dimethylheptyl homolog, reference compound]
cannabimimetic activity relative to Δ-1-tetrahydrocannabionol ([1]; more active than Δ-1-tetrahydrocannabionol): ~100 times

CCCCCCC(C)(C)c1cc(O)c2c(c1)OC(C)(C)[C@H]1CC=C(CO)C[C@H]21 [HU-211, (+)-(3S,4S)-1,1-dimethylheptyl homolog of 7-hydroxy-Δ⁶-tetrahydrocannabinol]
Stereotypy Gradient (Sabra mice [2]; time 0 min): 0.4±0.1 | Stereotypy Gradient (Sabra mice [2]; time 15 min): 1.3±0.2 | Stereotypy Gradient (Sabra mice [2]; time 30 min): 2.2±0.1 | Stereotypy Gradient (Sabra mice [2]; time 45 min): 0.7±0.2 | Stereotypy Gradient (Sabra mice [2]; time 60 min): 0.6±0.3 | induction of stereotypy, locomotor hyperactivity and tachycardia (Sabra mice [2]): induce stereotypy, locomotor hyperactivity and tachycardia | Locomotor Activity (Sabra mice [3]; time 0 min, score = squares crossed): 32.0±6.0 | Locomotor Activity (Sabra mice [3]; time 15 min): 45.0±2.0 | Locomotor Activity (Sabra mice [3]; time 30 min): 37.0±4.04 | Locomotor Activity (Sabra mice [3]; time 45 min): 28.0±13.0 | Locomotor Activity (Sabra mice [3]; time 60 min): 17.0±7 | Heart Rate (Sabra mice [4]; time 0 min): 169.2±2.5 per min | Heart Rate (Sabra mice [4]; time 75 min): 186.8±2.5 per min | mice that exhibited no tremors or seizures and stayed alive for more than four days following NMDA administration (Sabra mice [5]; Sabra mice pretreated with HU-211 (2.5 mg/kg s.c.), NMDA 200 mg/kg s.c.): two of the five | Time until death (Sabra mice [5]; [11]): 20.2 ± 7.0 min | Time until first seizure (Sabra mice [5]; [11]): 18.0 ± 7.0 min | Time until first tremor (Sabra mice [5]; [11]): 8.2 ± 1.3 min | mice that exhibited no tremors or seizures and stayed alive for more than four days following NMDA administration (C-57 Black mice; C-57 Black mice pretreated with HU-211 (2.50 mg/kg s.c.), NMDA 100 mg/kg s.c.): six of the seven | Time until death (C-57 Black mice; [12]): 18.6 ± 4.2 min | Time until first seizure (C-57 Black mice; [12]): 13.2 ± 2.6 min | Time until first tremor (C-57 Black mice; [12]): 12.0 ± 2.6 min | Time until death (C-57 Black mice; [13]): >5800 min | Time until first seizure (C-57 Black mice; [13]): 5800 min | Time until first tremor (C-57 Black mice; [13]): >5800 min | persistence of the anti-NMDA effects (C-57 Black mice; C-57 Black mice, repeated NMDA 100 mg/kg one day later in the six surviving mice, preliminary results): more than 24 h | blockade of NMDA-induced tremor, seizure and lethality (C-57 Black mice): potent blockers | equilibrium binding of 5 nM [³H]TCP (NMDA receptor [6]; 100 »M HU-211): not inhibited | maximum binding capacity of [3H]TCP (NMDA receptor [6]; in the presence of HU-211 10 »M, 2-100 nM [³H]TCP, 1 »M glutamate and 1 »M glycine (control 3.4)): 3.5 pmol/mg protein | dissociation rate of [³H]TCP from the NMDA receptor (NMDA receptor [7]; 10 »M HU-211, both in absence and presence of 1 »M glutamate and 1 »M glycine, much more strongly in their presence): decreased the dissociation rate | inhibition of the induced [³H]TCP binding compared with the (-)enantiomer HU-210 (NMDA receptor [7]; Figure 3, stereospecificity): far more potent inhibitor | efficacy of glutamate- or glycine-induced [³H]TCP binding (NMDA receptor [7]; HU-211 10 and 5 »M, apparent affinities of glutamate and glycine not altered): reduced the efficacy | rate of association of [³H]TCP binding to the NMDA receptor (NMDA receptor [7]; basal (no added agonist), 10 »M HU-211): only a small decrease | association rate of [³H]TCP binding (NMDA receptor [7]; induced: 1 »M glutamate and 1 »M glycine, 10 »M HU-211): marked decrease | protection against NMDA toxicity, Emulsion compared with Emulphor preparation (BALB/C mice [8]; HU-211 carried in the Emulsion versus the Emulphor preparation): better protection | % alive (BALB/C mice [8]; [14]): 20% | No.alive total (BALB/C mice [8]; [14]): 2/10 | Onset time of clinical signs (BALB/C mice [8]; [14]): 19 min | % alive (BALB/C mice [8]; [15]): 60% | No.alive total (BALB/C mice [8]; [15]): 4/7 | Onset time of clinical signs (BALB/C mice [8]; [15]): 7 min | % alive (BALB/C mice [8]; [16]): 80% | No.alive total (BALB/C mice [8]; [16]): 8/10 | Onset time of clinical signs (BALB/C mice [8]; [16]): 10 min | % alive (BALB/C mice [9]): 80% | No.alive total (BALB/C mice [9]): 8/10 | % alive (BALB/C mice [10]): 50% | No.alive total (BALB/C mice [10]): 4/8 | Onset time of clinical signs (BALB/C mice [10]): 54 min | cannabimimetic activity ([1]; even at doses several thousand times higher than ED₅₀ of HU-210): inactive

CCCCCCC(C)(C)c1cc(OC(C)=O)c2c(c1)OC(C)(C)[C@H]1CC=C(CO)C[C@H]21 [HU-247]
mice in which the tremorogenic, convulsive and lethal effects of NMDA were fully prevented (C-57 Black mice; C-57 Black mice, dose 2.5 mg/kg, same conditions as Table 2): 6 out of 7

CCCCCCC(C)(C)c1cc(O)c2c(c1)OC(C)(C)[C@H]1CC=C(C)C[C@H]21 [II]
induction of stereotypy, locomotor hyperactivity and tachycardia (Sabra mice [2]): induce stereotypy, locomotor hyperactivity and tachycardia | mice in which the tremorogenic, convulsive and lethal effects were prevented (C-57 Black mice; C-57 Black mice): 4 out of 6 | blockade of NMDA-induced tremor, seizure and lethality (C-57 Black mice): potent blockers

CCCCCCC(C)(C)c1cc(O)c2c(c1)OC(C)(C)[C@H]1CCC(C)=C[C@H]21 [IIa]
induction of stereotypy, locomotor hyperactivity and tachycardia (Sabra mice [2]): induce stereotypy, locomotor hyperactivity and tachycardia | mice in which the tremorogenic, convulsive and lethal effects were prevented (C-57 Black mice; C-57 Black mice): 4 out of 6 | blockade of NMDA-induced tremor, seizure and lethality (C-57 Black mice): potent blockers
